Measured values: ChEMBL document CHEMBL1201862, “PubChem BioAssay data set” (2004)
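Grown in 96-well plates, cells were treated for 48 hours with each compound at five concentrations. Insufficient inhibition: endpoint recorded as highest concentration tested. GI50 marks 50% less growth.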 Active and inactive are the calls of the source. Cut-off read from the data, not from the text of the source: active = GI50 up to about 1.1 µM and inactive = higher.

Key:
Experiment in all cases: NCI anticancer screen, dose series, 48 h
[1] = test system: 786-0
[2] = test system: A498
[3] = test system: A549
[4] = test system: ACHN
[5] = test system: BT-549
[6] = test system: CAKI-1
[7] = test system: CCRF-CEM
[8] = test system: COLO 205
[9] = test system: DU-145
[10] = test system: EKVX
[11] = test system: HCT-116
[12] = test system: HCT-15
[13] = test system: HL-60
[14] = test system: HOP-92
[15] = test system: HT-29
[16] = test system: Hs-578T
[17] = test system: IGROV-1
[18] = test system: KM12
[19] = test system: LOX IMVI
[20] = test system: M14
[21] = test system: MCF7
[22] = test system: MDA-MB-231
[23] = test system: MDA-MB-435
[24] = test system: MDA-N
[25] = test system: MOLT-4
[26] = test system: NCI-H226
[27] = test system: NCI-H23
[28] = test system: NCI-H460
[29] = test system: NCI-H522
[30] = test system: NCI/ADR-RES
[31] = test system: OVCAR-3
[32] = test system: OVCAR-4
[33] = test system: OVCAR-5
[34] = test system: OVCAR-8
[35] = test system: PC-3
[36] = test system: RPMI-8226
[37] = test system: RXF 393
[38] = test system: SF-268
[39] = test system: SF-295
[40] = test system: SF-539
[41] = test system: SK-MEL-2
[42] = test system: SK-MEL-5
[43] = test system: SK-OV-3
[44] = test system: SN12C
[45] = test system: SNB-19
[46] = test system: SNB-75
[47] = test system: SR
[48] = test system: SW-620
[49] = test system: T47D
[50] = test system: TK-10
[51] = test system: U-251
[52] = test system: UACC-257
[53] = test system: UACC-62
[54] = test system: UO-31
[55] = test system: HOP-62
[56] = test system: K562
[57] = test system: Malme-3M
[58] = test system: SK-MEL-28

## COc1cc2c(cc1O)-c1c(OC)c(O)cc3c1C(C2)N(C)CC3 (stereo not given)
[1]
  GI50: > 100 µM (inactive)
[2]
  GI50: > 100 µM (inactive)
[3]
  GI50: > 100 µM (inactive)
[4]
  GI50: > 100 µM (inactive)
[5]
  GI50: > 100 µM (inactive)
[6]
  GI50: > 100 µM (inactive)
[7]
  GI50: > 100 µM (inactive)
[8]
  GI50: > 100 µM (inactive)
[9]
  GI50: > 100 µM (inactive)
[10]
  GI50: > 100 µM (inactive)
[11]
  GI50: > 100 µM (inactive)
[12]
  GI50: > 100 µM
[13]
  GI50: > 100 µM (inactive)
[14]
  GI50: > 100 µM (inactive)
[15]
  GI50: > 100 µM (inactive)
[16]
  GI50: > 100 µM (inactive)
[17]
  GI50: > 100 µM (inactive)
[18]
  GI50: > 100 µM (inactive)
[19]
  GI50: > 100 µM (inactive)
[20]
  GI50: > 100 µM (inactive)
[21]
  GI50: > 100 µM (inactive)
[22]
  GI50: > 100 µM (inactive)
[23]
  GI50: > 100 µM (inactive)
[24]
  GI50: > 100 µM (inactive)
[25]
  GI50: > 100 µM (inactive)
[26]
  GI50: > 100 µM (inactive)
[27]
  GI50: > 100 µM (inactive)
[28]
  GI50: > 100 µM (inactive)
[29]
  GI50: > 100 µM (inactive)
[30]
  GI50: > 100 µM (inactive)
[31]
  GI50: > 100 µM (inactive)
[32]
  GI50: > 100 µM (inactive)
[33]
  GI50: > 100 µM (inactive)
[34]
  GI50: > 100 µM (inactive)
[35]
  GI50: > 100 µM (inactive)
[36]
  GI50: > 100 µM (inactive)
[37]
  GI50: > 100 µM (inactive)
[38]
  GI50: > 100 µM (inactive)
[39]
  GI50: > 100 µM (inactive)
[40]
  GI50: > 100 µM (inactive)
[41]
  GI50: > 100 µM (inactive)
[42]
  GI50: > 100 µM (inactive)
[43]
  GI50: > 100 µM (inactive)
[44]
  GI50: > 100 µM (inactive)
[45]
  GI50: > 100 µM (inactive)
[46]
  GI50: > 100 µM (inactive)
[47]
  GI50: > 100 µM (inactive)
[48]
  GI50: > 100 µM (inactive)
[49]
  GI50: > 100 µM (inactive)
[50]
  GI50: > 100 µM (inactive)
[51]
  GI50: > 100 µM (inactive)
[52]
  GI50: > 100 µM (inactive)
[53]
  GI50: > 100 µM (inactive)
[54]
  GI50: > 100 µM (inactive)

## CCOC(=O)CC[C@H](NC(=O)c1ccc(CNc2nc3cc(C(F)(F)F)ccc3nc2C(=O)OCC)cc1)C(=O)OCC
[1]
  GI50: 7.19 µM (inactive)
[2]
  GI50: > 100 µM (inactive)
[3]
  GI50: 34.7 µM (inactive)
[4]
  GI50: 33.8 µM (inactive)
[5]
  GI50: 18.1 µM (inactive)
[6]
  GI50: 14.3 µM (inactive)
[7]
  GI50: > 100 µM (inactive)
[8]
  GI50: > 100 µM (inactive)
[9]
  GI50: > 81.8 µM (inactive)
[10]
  GI50: 17.3 µM (inactive)
[11]
  GI50: > 56.1 µM (inactive)
[12]
  GI50: 76.2 µM
[13]
  GI50: > 100 µM (inactive)
[55]
  GI50: 9.25 µM (inactive)
[14]
  GI50: 13 µM (inactive)
[15]
  GI50: > 100 µM (inactive)
[16]
  GI50: 7.16 µM (inactive)
[17]
  GI50: 21 µM (inactive)
[56]
  GI50: 70.3 µM (inactive)
[18]
  GI50: 52.2 µM (inactive)
[19]
  GI50: > 100 µM (inactive)
[20]
  GI50: > 43.7 µM (inactive)
[21]
  GI50: 19 µM (inactive)
[22]
  GI50: 13.3 µM (inactive)
[23]
  GI50: > 73.6 µM (inactive)
[24]
  GI50: > 100 µM (inactive)
[25]
  GI50: > 100 µM (inactive)
[57]
  GI50: 18.8 µM (inactive)
[27]
  GI50: 26.1 µM (inactive)
[28]
  GI50: 15.5 µM (inactive)
[29]
  GI50: 15.7 µM (inactive)
[30]
  GI50: 26.5 µM (inactive)
[31]
  GI50: > 38.8 µM (inactive)
[33]
  GI50: 34.7 µM (inactive)
[34]
  GI50: 9.42 µM (inactive)
[35]
  GI50: 30.3 µM (inactive)
[36]
  GI50: 5.58 µM (inactive)
[37]
  GI50: 27.7 µM (inactive)
[38]
  GI50: 12.4 µM (inactive)
[39]
  GI50: 8.34 µM (inactive)
[40]
  GI50: 4.59 µM (inactive)
[58]
  GI50: > 69.8 µM (inactive)
[41]
  GI50: > 48.2 µM (inactive)
[42]
  GI50: 27.9 µM (inactive)
[43]
  GI50: 31.4 µM (inactive)
[44]
  GI50: > 89.9 µM (inactive)
[45]
  GI50: 9.14 µM (inactive)
[46]
  GI50: 12.8 µM (inactive)
[47]
  GI50: > 100 µM (inactive)
[48]
  GI50: > 61.2 µM (inactive)
[49]
  GI50: 18.1 µM (inactive)
[50]
  GI50: 15.4 µM (inactive)
[51]
  GI50: 5.87 µM (inactive)
[52]
  GI50: 42.8 µM (inactive)
[53]
  GI50: 16.1 µM (inactive)
[54]
  GI50: 25.2 µM (inactive)
